This is an account of results in patent publication US10308986B2, “Cancer diagnosis, treatment selection and treatment” (CHILDREN'S MEDICAL CENTER CORPORATION, priority 2013, dated 2019).

The structures appear in SMILES notation. Where two headings read alike, the source gives them in different places.

In test [1] the test system is panel of breast cancer cell lines. Kind of test: Colony formation assay, IC50, panel of breast cancer cell lines. It is filed as cell-based. Conditions: for association of pattern of sensitivity across cell line panel with relative expression of BRCA1/BLM and BLM/Actin: panel of breast cancer cell lines. As for the experimental part: Three cell lines (BT549, HCC1143, and HCC38) are normal genotype for BRCA1 and have high BLM/Actin and low ratio of BRCA1/BLM. Two cell lines (MDA231 and MDA453) are also normal genotype for BRCA1 but have relatively higher expression of BRCA1/BLM and lower BLM/actin. HCC1937 and MDA436 have homozygous mutation in BRCA1 and undetectable BRCA1/BLM, and higher expression of BLM/Actin.
A panel of cell lines was evaluated for sensitivity to various treatments as indicated by colony formation assay and calculation of IC50 values.

For test [2], the system named is BT549 breast cancer cells. Kind of test: Colony formation assay, IC50, BT549 cells treated with siRNAs to BLM or FANCI. It is filed as cell-based. Conditions: versus scramble control. As for the experimental part:
We further treated BT549 breast cancer cells, with inherent high levels of BLM and FANCI were treated with gene-specific siRNAs to BLM or FANCI or with a scramble control.

Test [3] has as its system MDA231 breast cancer cells. The test can be described thus: Colony formation assay, IC50 for cisplatin, MDA231 cells with BLM overexpression. Type of test: cell-based. On the procedure:
These cells were used in experiments to assess the effect of increasing the expression of BLM. A lentivirus expression vector for HA-tagged BLM cDNA or a control vector was transfected into MDA231 cells. BLM expression was assessed by Western blot analysis for endogenous BLM or for the HA-tag in cells treated with control vector, BLM cDNA, BLM cDNA and a small molecule inhibitor of BLM helicase (BLMi), or BLM cDNA and BLM siRNA.
IC50 for cisplatin was determined by colony formation assay in MDA231 breast cancer cells treated with control vector, BLM cDNA vector, BLM cDNA plus the BLM small molecule inhibitor, and BLM cDNA plus BLM siRNA. […] Consistent with the other findings, this effect was reversed by treatment with the BLM helicase inhibitor and by siRNA knockdown of BLM.

Test [4] concerns H2AX and 53BP1 foci. Kind of test: Immunofluorescence assay for markers of DNA damage (H2Ax-p and 53BP1-p) in MDA231 cells. Type of test: cell-based. Conditions: cisplatin after 4 hours, compared with no cisplatin treatment. As for the experimental part: We also performed an immunofluorescence assay for markers of DNA damage (H2Ax-p and 53BP1-p) in MDA231 cells treated with control vector, BLM cDNA, BLM cDNA+BLM inhibitor, or BLM cDNA+BLM siRNA. Overexpression of BLM results in increased H2AX and 53BP1 foci in the absence of any cisplatin treatment indicating spontaneous DNA damage. This effect is even greater in cells treated with cisplatin after 4 hours. The quantitation of foci is shown in the lower bar graphs. The addition of a small molecule BLM helicase inhibitor (Bi) or siRNA to BLM (si) blocks the effect of BLM overexpression on DNA damage foci.

Test [5] has as its system triple negative breast cancer. The note with it: 28 TNBC patients, neoadjuvant cisplatin as single agent (Silver et al., JCO 2010); cited from earlier work.
Test [6] concerns triple negative breast cancer. Conditions: TNBC patients, neoadjuvant cisplatin in combination with bevacizumab; 44 patients completed therapy (Ryan et al., JCO 2009); cited from earlier work.
Where [7] appears, read: two BRCA1 mutated cell lines (HCC1937, MDA436) and three cell lines with low BRCA1/BLM and high BLM/actin (BT549, HCC1143, HCC38).
The mark [8] stands for this setting: two cell lines with low BLM and high BRCA1/BLM (MDA231, MDA453).

As to `O=C(c1cc(Cc2n[nH]c(=O)c3ccccc23)ccc1F)N1CCN(C(=O)C2CC2)CC1` [Olaparib], the “association of pattern of sensitivity across cell line panel with relative expression of BRCA1/BLM and BLM/Actin” value in test [1] was “associated”. Besides, the entries for the “sensitivity by colony formation assay (IC50)” value in test [1] (setting [7]) and in test [1] (setting [8]) were “greater sensitivity” and “relatively resistant”, respectively.
Turning to `CC(=O)O[C@H]1C(=O)[C@@]2(C)[C@H]([C@H](OC(=O)c3ccccc3)[C@]3(O)C[C@H](OC(=O)[C@H](O)[C@@H](NC(=O)c4ccccc4)c4ccccc4)C(C)=C1C3(C)C)[C@]1(OC(C)=O)CO[C@@H]1C[C@@H]2O` [Paclitaxel], the “association of pattern of sensitivity across cell line panel with relative expression of BRCA1/BLM and BLM/Actin” value in test [1] was “no apparent association”. In addition, the “effect of siRNA knockdown of either BLM or FANCI on IC50” value in test [2] is recorded as “no significant effect”.
For `N.N.[Cl][Pt][Cl]` [cisplatin, cis-diamminedichloroplatinum], in test [1], the “association of pattern of sensitivity across cell line panel with relative expression of BRCA1/BLM and BLM/Actin” value is “associated”. For the same molecule, the “sensitivity by colony formation assay (IC50)” value was “greater sensitivity” in test [1] (setting [7]) and “relatively resistant” in test [1] (setting [8]). For the same molecule, the “effect of siRNA knockdown of either BLM or FANCI on IC50” value in test [2] is on record as “increased IC50 (greater resistance)”. Besides, the “sensitivity of MDA231 cells” value in test [3] (MDA231 cells with low levels of BLM) is given as “relative resistance”. Further, the “effect of overexpression of BLM on IC50 for cisplatin” value in test [3] (MDA231 cells, BLM cDNA vector versus control vector) is on record as “decrease in the IC50 (greater sensitivity)”. Moreover, in test [4], the “H2AX and 53BP1 foci in BLM overexpressing cells” value is “even greater”. The figures for the “patients who achieved at least 90% reduction in tumor size” value in test [5] and in test [6] were 36% and 39%, respectively.
